In PubChem BioAssay (NCI):
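Growth conditions: 96-well plates. Treatment: test compound, 48 hours, 5 concentrations. Analysis: linear interpolation between bracketing concentrations; unreached endpoints set to highest concentration. GI50 = concentration required for 50% inhibition of growth. TGI marks complete inhibition of growth.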

What was measured:
Experiment in all cases: NCI anticancer screen, dose series, 48 h
SK-OV-3 ovarian = test system: SK-OV-3 ovarian
OVCAR-8 ovarian = test system: OVCAR-8 ovarian
DU-145 prostate = test system: DU-145 prostate
SK-MEL-2 melanoma = test system: SK-MEL-2 melanoma
ACHN renal = test system: ACHN renal
HS 578T breast = test system: HS 578T breast
HL-60(TB) leukemia = test system: HL-60(TB) leukemia
SK-MEL-5 melanoma = test system: SK-MEL-5 melanoma
SW-620 colon = test system: SW-620 colon
SNB-19 CNS = test system: SNB-19 CNS
KM12 colon = test system: KM12 colon
K-562 leukemia = test system: K-562 leukemia
A498 renal = test system: A498 renal
UACC-257 melanoma = test system: UACC-257 melanoma
U251 CNS = test system: U251 CNS
NCI-H460 lung = test system: NCI-H460 lung
SF-268 CNS = test system: SF-268 CNS
RXF 393 renal = test system: RXF 393 renal
SR leukemia = test system: SR leukemia
IGROV1 ovarian = test system: IGROV1 ovarian
MCF7 breast = test system: MCF7 breast
NCI-H226 lung = test system: NCI-H226 lung
MALME-3M melanoma = test system: MALME-3M melanoma
HCT-15 colon = test system: HCT-15 colon
SNB-75 CNS = test system: SNB-75 CNS
M14 melanoma = test system: M14 melanoma
NCI-H522 lung = test system: NCI-H522 lung
UO-31 renal = test system: UO-31 renal
EKVX NSCLC = test system: EKVX NSCLC
NCI-H23 lung = test system: NCI-H23 lung
CCRF-CEM leukemia = test system: CCRF-CEM leukemia
MOLT-4 leukemia = test system: MOLT-4 leukemia
A549 NSCLC = test system: A549 NSCLC
TK-10 renal = test system: TK-10 renal
T-47D breast = test system: T-47D breast
COLO 205 colon = test system: COLO 205 colon
PC-3 prostate = test system: PC-3 prostate
SF-295 CNS = test system: SF-295 CNS
MDA-MB-231 breast = test system: MDA-MB-231 breast
UACC-62 melanoma = test system: UACC-62 melanoma
786-0 renal = test system: 786-0 renal
SK-MEL-28 melanoma = test system: SK-MEL-28 melanoma
NCI/ADR-RES ovarian = test system: NCI/ADR-RES ovarian
HCT-116 colon = test system: HCT-116 colon
RPMI-8226 leukemia = test system: RPMI-8226 leukemia
MDA-MB-435 = test system: MDA-MB-435
SN12C renal = test system: SN12C renal
BT-549 breast = test system: BT-549 breast
OVCAR-4 ovarian = test system: OVCAR-4 ovarian
OVCAR-3 ovarian = test system: OVCAR-3 ovarian
HT29 colon = test system: HT29 colon
CAKI-1 renal = test system: CAKI-1 renal
HOP-62 NSCLC = test system: HOP-62 NSCLC
SF-539 CNS = test system: SF-539 CNS
OVCAR-5 ovarian = test system: OVCAR-5 ovarian
HCC-2998 colon = test system: HCC-2998 colon
HOP-92 NSCLC = test system: HOP-92 NSCLC
LOX IMVI melanoma = test system: LOX IMVI melanoma

Compound: CN1CCN(Cc2ccc(NC(=O)c3cncc(C#Cc4cnc5ccc(O[C@@H]6CCOC6)nn45)c3)cc2C(F)(F)F)CC1
- GI50 (SK-OV-3 ovarian): 0.449 µM
- TGI (SK-OV-3 ovarian): 1.12 µM
- GI50 (OVCAR-8 ovarian): 0.16 µM
- TGI (OVCAR-8 ovarian): 0.634 µM
- GI50 (DU-145 prostate): 0.187 µM
- TGI (DU-145 prostate): 0.642 µM
- GI50 (SK-MEL-2 melanoma): 0.114 µM
- TGI (SK-MEL-2 melanoma): 0.321 µM
- GI50 (ACHN renal): 0.171 µM
- TGI (ACHN renal): 0.67 µM
- GI50 (HS 578T breast): 0.127 µM
- TGI (HS 578T breast): 0.565 µM
- GI50 (HL-60(TB) leukemia): 0.0752 µM
- TGI (HL-60(TB) leukemia): 0.364 µM
- GI50 (SK-MEL-5 melanoma): 0.586 µM
- TGI (SK-MEL-5 melanoma): 1.22 µM
- GI50 (SW-620 colon): 0.153 µM
- TGI (SW-620 colon): 0.623 µM
- GI50 (SNB-19 CNS): 0.301 µM
- TGI (SNB-19 CNS): 1.22 µM
- GI50 (KM12 colon): 0.005 µM
- TGI (KM12 colon): 0.539 µM
- GI50 (K-562 leukemia): 0.005 µM
- TGI (K-562 leukemia): 1.79 µM
- GI50 (A498 renal): 0.606 µM
- TGI (A498 renal): 1.25 µM
- GI50 (UACC-257 melanoma): 0.531 µM
- TGI (UACC-257 melanoma): 1.24 µM
- GI50 (U251 CNS): 0.27 µM
- TGI (U251 CNS): 0.933 µM
- GI50 (NCI-H460 lung): 0.182 µM
- TGI (NCI-H460 lung): 0.703 µM
- GI50 (SF-268 CNS): 0.158 µM
- TGI (SF-268 CNS): 0.562 µM
- GI50 (RXF 393 renal): 0.143 µM
- TGI (RXF 393 renal): 0.405 µM
- GI50 (SR leukemia): 0.0823 µM
- TGI (SR leukemia): 0.49 µM
- GI50 (IGROV1 ovarian): 0.0894 µM
- TGI (IGROV1 ovarian): 0.587 µM
- GI50 (MCF7 breast): 0.0804 µM
- TGI (MCF7 breast): 0.58 µM
- GI50 (NCI-H226 lung): 0.0478 µM
- TGI (NCI-H226 lung): 0.911 µM
- GI50 (MALME-3M melanoma): 0.0613 µM
- TGI (MALME-3M melanoma): 0.294 µM
- GI50 (HCT-15 colon): 0.161 µM
- TGI (HCT-15 colon): 0.639 µM
- GI50 (SNB-75 CNS): 0.124 µM
- TGI (SNB-75 CNS): 0.51 µM
- GI50 (M14 melanoma): 0.0662 µM
- TGI (M14 melanoma): 0.181 µM
- GI50 (NCI-H522 lung): 0.107 µM
- TGI (NCI-H522 lung): 0.277 µM
- GI50 (UO-31 renal): 0.173 µM
- TGI (UO-31 renal): 0.682 µM
- GI50 (EKVX NSCLC): 0.288 µM
- TGI (EKVX NSCLC): 0.942 µM
- GI50 (NCI-H23 lung): 0.178 µM
- TGI (NCI-H23 lung): 0.729 µM
- GI50 (CCRF-CEM leukemia): 0.0751 µM
- TGI (CCRF-CEM leukemia): 3.05 µM
- GI50 (MOLT-4 leukemia): 0.0818 µM
- TGI (MOLT-4 leukemia): 1.32 µM
- GI50 (A549 NSCLC): 0.195 µM
- TGI (A549 NSCLC): 0.693 µM
- GI50 (TK-10 renal): 0.177 µM
- TGI (TK-10 renal): 0.632 µM
- GI50 (T-47D breast): 0.556 µM
- TGI (T-47D breast): 1.31 µM
- GI50 (COLO 205 colon): 0.109 µM
- TGI (COLO 205 colon): 0.22 µM
- GI50 (PC-3 prostate): 0.277 µM
- TGI (PC-3 prostate): 1.21 µM
- GI50 (SF-295 CNS): 0.454 µM
- TGI (SF-295 CNS): 1.18 µM
- GI50 (MDA-MB-231 breast): 0.0825 µM
- TGI (MDA-MB-231 breast): 0.475 µM
- GI50 (UACC-62 melanoma): 0.165 µM
- TGI (UACC-62 melanoma): 0.809 µM
- GI50 (786-0 renal): 0.265 µM
- TGI (786-0 renal): 0.833 µM
- GI50 (SK-MEL-28 melanoma): 0.186 µM
- TGI (SK-MEL-28 melanoma): 0.813 µM
- GI50 (NCI/ADR-RES ovarian): 0.676 µM
- TGI (NCI/ADR-RES ovarian): 1.91 µM
- GI50 (HCT-116 colon): 0.0649 µM
- TGI (HCT-116 colon): 0.454 µM
- GI50 (RPMI-8226 leukemia): 0.265 µM
- TGI (RPMI-8226 leukemia): 1.26 µM
- GI50 (MDA-MB-435): 0.125 µM
- TGI (MDA-MB-435): 0.653 µM
- GI50 (SN12C renal): 0.12 µM
- TGI (SN12C renal): 0.636 µM
- GI50 (BT-549 breast): 0.646 µM
- TGI (BT-549 breast): 1.29 µM
- GI50 (OVCAR-4 ovarian): 0.155 µM
- TGI (OVCAR-4 ovarian): 0.94 µM
- GI50 (OVCAR-3 ovarian): 0.194 µM
- TGI (OVCAR-3 ovarian): 0.768 µM
- GI50 (HT29 colon): 0.111 µM
- TGI (HT29 colon): 0.602 µM
- GI50 (CAKI-1 renal): 0.122 µM
- TGI (CAKI-1 renal): 0.596 µM
- GI50 (HOP-62 NSCLC): 0.176 µM
- TGI (HOP-62 NSCLC): 0.641 µM
- GI50 (SF-539 CNS): 0.0998 µM
- TGI (SF-539 CNS): 0.715 µM
- GI50 (OVCAR-5 ovarian): 0.223 µM
- TGI (OVCAR-5 ovarian): 0.883 µM
- GI50 (HCC-2998 colon): 0.26 µM
- TGI (HCC-2998 colon): 0.886 µM
- GI50 (HOP-92 NSCLC): 0.0273 µM
- TGI (HOP-92 NSCLC): 0.117 µM
- GI50 (LOX IMVI melanoma): 0.139 µM
- TGI (LOX IMVI melanoma): 0.635 µM
